Assay results reported in PubChem BioAssay (NCI).
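Grown in 96-well plates, cells were treated for 48 hours with each compound at five concentrations. Insufficient inhibition: endpoint recorded as highest concentration tested. TGI denotes the concentration required for complete inhibition of growth.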

Assays:
Assay in all cases: DTP human tumour cell line panel, 48 h
[1] = tested on: 786-0 renal
[2] = tested on: A498 renal
[3] = tested on: A549 NSCLC
[4] = tested on: ACHN renal
[5] = tested on: BT-549 breast
[6] = tested on: CAKI-1 renal
[7] = tested on: CCRF-CEM leukemia
[8] = tested on: COLO 205 colon
[9] = tested on: DU-145 prostate
[10] = tested on: EKVX NSCLC
[11] = tested on: HCC-2998 colon
[12] = tested on: HCT-116 colon
[13] = tested on: HCT-15 colon
[14] = tested on: HL-60(TB) leukemia
[15] = tested on: HOP-62 NSCLC
[16] = tested on: HOP-92 NSCLC
[17] = tested on: HS 578T breast
[18] = tested on: HT29 colon
[19] = tested on: IGROV1 ovarian
[20] = tested on: K-562 leukemia
[21] = tested on: KM12 colon
[22] = tested on: LOX IMVI melanoma
[23] = tested on: M14 melanoma
[24] = tested on: MALME-3M melanoma
[25] = tested on: MCF7 breast
[26] = tested on: MDA-MB-231 breast
[27] = tested on: MDA-MB-435
[28] = tested on: MDA-N
[29] = tested on: MOLT-4 leukemia
[30] = tested on: NCI-H226 lung
[31] = tested on: NCI-H23 lung
[32] = tested on: NCI-H460 lung
[33] = tested on: NCI-H522 lung
[34] = tested on: NCI/ADR-RES ovarian
[35] = tested on: OVCAR-3 ovarian
[36] = tested on: OVCAR-4 ovarian
[37] = tested on: OVCAR-5 ovarian
[38] = tested on: OVCAR-8 ovarian
[39] = tested on: PC-3 prostate
[40] = tested on: RPMI-8226 leukemia
[41] = tested on: RXF 393 renal
[42] = tested on: SF-268 CNS
[43] = tested on: SF-295 CNS
[44] = tested on: SF-539 CNS
[45] = tested on: SK-MEL-2 melanoma
[46] = tested on: SK-MEL-28 melanoma
[47] = tested on: SK-MEL-5 melanoma
[48] = tested on: SK-OV-3 ovarian
[49] = tested on: SN12C renal
[50] = tested on: SNB-19 CNS
[51] = tested on: SNB-75 CNS
[52] = tested on: SR leukemia
[53] = tested on: SW-620 colon
[54] = tested on: T-47D breast
[55] = tested on: TK-10 renal
[56] = tested on: U251 CNS
[57] = tested on: UACC-257 melanoma
[58] = tested on: UACC-62 melanoma
[59] = tested on: UO-31 renal
[60] = tested on: DLD-1 colon
[61] = tested on: DMS 114 small cell lung
[62] = tested on: DMS 273 small cell lung
[63] = tested on: KM20L2 colon
[64] = tested on: LXFL 529 NSCLC
[65] = tested on: M19-MEL melanoma
[66] = tested on: SNB-78 CNS
[67] = tested on: XF 498 CNS

COC(=O)C1=CON2C3CC4CC(C3)CC(C4)C12C (stereo not given)
TGI [1]: > 100 µM
TGI [2]: > 100 µM
TGI [3]: > 100 µM
TGI [4]: > 100 µM
TGI [5]: > 100 µM
TGI [6]: > 100 µM
TGI [7]: > 100 µM
TGI [8]: > 100 µM
TGI [9]: > 100 µM
TGI [10]: > 100 µM
TGI [11]: > 100 µM
TGI [12]: > 100 µM
TGI [13]: > 100 µM
TGI [14]: > 100 µM
TGI [15]: > 100 µM
TGI [16]: > 100 µM
TGI [17]: > 100 µM
TGI [18]: > 100 µM
TGI [19]: > 100 µM
TGI [20]: > 100 µM
TGI [21]: > 100 µM
TGI [22]: > 100 µM
TGI [23]: > 100 µM
TGI [24]: > 100 µM
TGI [25]: > 100 µM
TGI [26]: > 100 µM
TGI [27]: > 100 µM
TGI [28]: > 100 µM
TGI [29]: > 100 µM
TGI [30]: > 100 µM
TGI [31]: > 100 µM
TGI [32]: > 100 µM
TGI [33]: > 100 µM
TGI [34]: > 100 µM
TGI [35]: > 100 µM
TGI [36]: > 100 µM
TGI [37]: > 100 µM
TGI [38]: > 100 µM
TGI [39]: > 100 µM
TGI [40]: > 100 µM
TGI [41]: > 100 µM
TGI [42]: > 100 µM
TGI [43]: > 100 µM
TGI [44]: > 100 µM
TGI [45]: > 100 µM
TGI [46]: > 100 µM
TGI [47]: > 100 µM
TGI [48]: > 100 µM
TGI [49]: > 100 µM
TGI [50]: > 100 µM
TGI [51]: > 100 µM
TGI [52]: > 100 µM
TGI [53]: > 100 µM
TGI [54]: > 100 µM
TGI [55]: > 100 µM
TGI [56]: > 100 µM
TGI [57]: > 100 µM
TGI [58]: > 100 µM
TGI [59]: > 100 µM

C=C1C(=O)OC2/C=C(\CO)CC/C=C(\CO)CC(OC(=O)C(C)C)C12 (stereo not given)
TGI [1]: 20.2 µM
TGI [2]: 59.2 µM
TGI [3]: 37 µM
TGI [4]: 3.54 µM
TGI [5]: 23.4 µM
TGI [6]: 3.31 µM
TGI [7]: > 33.2 µM
TGI [8]: 4.18 µM
TGI [9]: 29.5 µM
TGI [10]: 38.8 µM
TGI [11]: 37.2 µM
TGI [12]: 47.9 µM
TGI [13]: 11.6 µM
TGI [14]: > 24.8 µM
TGI [15]: 36.3 µM
TGI [16]: 4.13 µM
TGI [17]: 49 µM
TGI [18]: 30 µM
TGI [19]: 33.6 µM
TGI [20]: > 24.2 µM
TGI [21]: 33.5 µM
TGI [22]: 45.8 µM
TGI [23]: 19.9 µM
TGI [24]: 4.45 µM
TGI [25]: 8.85 µM
TGI [26]: 38 µM
TGI [27]: 29.5 µM
TGI [28]: 17.9 µM
TGI [29]: > 27.4 µM
TGI [30]: 34.2 µM
TGI [31]: 38.5 µM
TGI [32]: 38.6 µM
TGI [33]: 4.11 µM
TGI [34]: 45.3 µM
TGI [35]: 23.9 µM
TGI [36]: 44 µM
TGI [37]: 29.8 µM
TGI [38]: 45.7 µM
TGI [39]: 31.1 µM
TGI [40]: 25.5 µM
TGI [41]: 19.3 µM
TGI [42]: 19.8 µM
TGI [43]: 45.5 µM
TGI [44]: 29 µM
TGI [45]: 30.8 µM
TGI [46]: 42.4 µM
TGI [47]: 36 µM
TGI [48]: > 55.9 µM
TGI [49]: 26.1 µM
TGI [50]: 45.9 µM
TGI [51]: 32.2 µM
TGI [52]: > 52.1 µM
TGI [53]: 22.9 µM
TGI [54]: 24.8 µM
TGI [55]: 15.6 µM
TGI [56]: 43.3 µM
TGI [57]: 27 µM
TGI [58]: 29.4 µM
TGI [59]: 27.4 µM

CCN(CC)CCOc1ccc(C(O)(Cc2ccc(OC)cc2)c2ccccc2)cc1 (stereo not given)
TGI [1]: 32.3 µM
TGI [2]: 41.2 µM
TGI [3]: 48.5 µM
TGI [4]: 65.3 µM
TGI [6]: 50.9 µM
TGI [7]: 44.9 µM
TGI [8]: 24.9 µM
TGI [60]: 72.3 µM
TGI [61]: 31.1 µM
TGI [62]: 28.3 µM
TGI [10]: 80.6 µM
TGI [11]: 27.5 µM
TGI [12]: 26.8 µM
TGI [13]: 51 µM
TGI [14]: 24.9 µM
TGI [15]: 32.5 µM
TGI [16]: 46 µM
TGI [18]: 14.6 µM
TGI [19]: 87.8 µM
TGI [20]: 18.6 µM
TGI [21]: 36.2 µM
TGI [63]: 9.27 µM
TGI [22]: 29 µM
TGI [64]: 37.2 µM
TGI [23]: 27.8 µM
TGI [65]: 29.5 µM
TGI [24]: 33 µM
TGI [29]: 38.4 µM
TGI [30]: 77.5 µM
TGI [31]: 45.1 µM
TGI [32]: 51.9 µM
TGI [33]: 40.9 µM
TGI [35]: > 100 µM
TGI [36]: 75.3 µM
TGI [37]: 61.5 µM
TGI [38]: > 100 µM
TGI [40]: 39.7 µM
TGI [41]: 30.4 µM
TGI [42]: 52 µM
TGI [43]: 33.1 µM
TGI [44]: 25.1 µM
TGI [45]: 35.9 µM
TGI [46]: 27 µM
TGI [47]: 26.1 µM
TGI [48]: 57.9 µM
TGI [49]: > 100 µM
TGI [50]: 67.5 µM
TGI [51]: 27.6 µM
TGI [66]: 44.7 µM
TGI [52]: 32 µM
TGI [53]: 34.5 µM
TGI [55]: 76.4 µM
TGI [56]: 35.5 µM
TGI [57]: 30.3 µM
TGI [58]: 31 µM
TGI [59]: 62 µM
TGI [67]: 27.5 µM
